Structures are written as SMILES.

For orientation: IC50 means the midpoint of a concentration-inhibition curve. Read a high IC50 as lower potency. Broadly, the half-life is the time in which the quantity being followed falls by half. A word on the AUC(0-t): it is exposure summed from dosing to a finite time, without extrapolation to infinity. By AUC(0-inf) is commonly meant total exposure, with the tail of the curve extrapolated. The clearance is the volume of plasma or blood freed of the substance per unit of time. Low values mean inefficient removal, high ones efficient removal. A word on the Tmax: it is the time from dosing to the highest level. In general, Cmax refers to the maximum level reached in the sampled fluid or tissue.

One series addresses Angiopoietin-1 receptor (Homo sapiens, UniProt Q02763).
Series [1] in a line: Half life in rat at 1 mg/kg, iv. The arrangement: dose 1 mg/kg, route intravenous. It is filed as ADME, organism-based. The settings on record: in vivo.
Series [2] can be described thus: AUC (0-t) in rat at 1 mg/kg, iv. It is filed as ADME, organism-based. The arrangement: dose 1 mg/kg, route intravenous. The settings on record: plasma.
Series [3] can be described thus: AUC (0-infinity) in rat at 1 mg/kg, iv. It is filed as ADME, organism-based. The arrangement: time infinity, dose 1 mg/kg, route intravenous. The settings on record: plasma.
Series [4] is described as follows: Volume of distribution in rat at 1 mg/kg, iv. It is filed as ADME, organism-based. The arrangement: dose 1 mg/kg, route intravenous. Particulars: in vivo, read-out: Vdss.
The nature of series [5]: Clearance in rat at 1 mg/kg, iv. It is filed as ADME, organism-based. Also noted: dose 1 mg/kg, route intravenous. The settings on record: in vivo.
Series [6] is described as follows: Tmax in rat at 5 mg/kg, po. It is filed as ADME, organism-based. The arrangement: dose 5 mg/kg, route oral. Particulars: in vivo.
Series [7] in a line: AUC (0-t) in rat at 5 mg/kg, po. Also noted: dose 5 mg/kg, route oral. It is filed as ADME, organism-based. Particulars: plasma.
Series [8] can be described thus: AUC (0-infinity) in rat at 5 mg/kg, po. It is filed as ADME, organism-based. Also noted: time infinity, dose 5 mg/kg, route oral. The settings on record: plasma.
The nature of series [9]: Cmax in rat at 5 mg/kg, po. It is filed as ADME, organism-based. The settings on record: in vivo. Also noted: dose 5 mg/kg, route oral.
The species named for the next series is Mus musculus. Briefly: Antitumor activity against murine SVR cells in nude mice. It is filed as functional.
A further series deals with Rattus norvegicus. Description: Toxicity assessed by gastrointestinal hemorrhage in rat at 10 mg/kg. It is filed as organism-based. The arrangement: dose 10 mg/kg. Particulars: in vivo.

Sequence of Angiopoietin-1 receptor (Q02763 whole entry): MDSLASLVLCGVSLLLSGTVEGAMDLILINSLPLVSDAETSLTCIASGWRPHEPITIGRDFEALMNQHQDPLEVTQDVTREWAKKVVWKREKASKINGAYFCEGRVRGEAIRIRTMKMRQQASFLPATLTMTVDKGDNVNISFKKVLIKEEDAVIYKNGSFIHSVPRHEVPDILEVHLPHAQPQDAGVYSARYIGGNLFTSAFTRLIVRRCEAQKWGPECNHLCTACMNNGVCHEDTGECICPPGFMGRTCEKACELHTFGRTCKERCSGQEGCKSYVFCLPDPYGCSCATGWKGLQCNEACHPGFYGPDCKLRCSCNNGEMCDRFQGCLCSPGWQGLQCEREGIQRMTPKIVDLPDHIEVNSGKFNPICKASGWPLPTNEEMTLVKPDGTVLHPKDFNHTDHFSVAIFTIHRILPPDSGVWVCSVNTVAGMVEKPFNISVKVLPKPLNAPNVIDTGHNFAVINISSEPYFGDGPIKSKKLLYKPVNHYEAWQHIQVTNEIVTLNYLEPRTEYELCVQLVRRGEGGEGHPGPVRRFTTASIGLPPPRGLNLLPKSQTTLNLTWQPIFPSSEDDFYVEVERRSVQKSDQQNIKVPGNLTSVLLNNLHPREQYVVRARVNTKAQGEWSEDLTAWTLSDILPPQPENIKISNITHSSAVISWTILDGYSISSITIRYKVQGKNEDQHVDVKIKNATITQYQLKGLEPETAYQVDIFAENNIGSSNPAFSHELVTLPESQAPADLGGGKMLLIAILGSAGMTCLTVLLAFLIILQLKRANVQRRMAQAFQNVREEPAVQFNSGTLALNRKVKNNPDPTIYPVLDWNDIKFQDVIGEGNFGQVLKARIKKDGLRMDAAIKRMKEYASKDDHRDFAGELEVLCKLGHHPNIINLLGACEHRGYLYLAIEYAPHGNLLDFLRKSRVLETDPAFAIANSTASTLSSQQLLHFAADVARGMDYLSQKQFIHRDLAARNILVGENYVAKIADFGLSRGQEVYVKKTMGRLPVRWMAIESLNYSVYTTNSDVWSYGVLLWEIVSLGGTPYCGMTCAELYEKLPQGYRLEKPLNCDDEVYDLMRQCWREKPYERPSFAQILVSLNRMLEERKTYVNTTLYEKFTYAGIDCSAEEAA

With `CCCn1c2ccc(NC(=O)Nc3ccccc3)cc2c2c3c(c4c(c21)CCc1nn(C)cc1-4)C(=O)NC3`, at Angiopoietin-1 receptor, half-maximal inhibition (IC50) was put at 5 nM. In the case of `CCCn1c2ccc(NC(=O)Nc3ccc(OC)cc3)cc2c2c3c(c4c(c21)CCc1nn(C)cc1-4)C(=O)NC3`, at Angiopoietin-1 receptor, 2 nM corresponded to half-maximal inhibition (IC50).

With `CCCn1c2ccc(NC(=O)Nc3cc(C)ccc3F)cc2c2c3c(c4c(c21)CCc1nn(C)cc1-4)C(=O)NC3`, on Angiopoietin-1 receptor, the IC50 came out at 1 nM. Same read-out and setting: the same measure for `CCCn1c2ccc(NC(=O)Oc3ccc(OC)cc3)cc2c2c3c(c4c(c21)CCc1nn(C)cc1-4)C(=O)NC3`: 5 nM; for `CC(C)Cn1c2ccc(N)cc2c2c3c(c4c(c21)CCc1nn(C)cc1-4)C(=O)NC3`: 48 nM. As for `COc1ccc(NC(=O)Nc2ccc3c(c2)c2c4c(c5c(c2n3CC(C)C)CCc2nn(C)cc2-5)C(=O)NC4)cc1`, the IC50 against Angiopoietin-1 receptor was 3 nM.

`COc1cccc(NC(=O)Nc2ccc3c(c2)c2c4c(c5c(c2n3CC(C)C)CCc2nn(C)cc2-5)C(=O)NC4)c1` gave a half-inhibitory concentration (IC50) on Angiopoietin-1 receptor of 4 nM. On the same count and under the same terms, the same measure for `CC(C)Cn1c2ccc(NC(=O)c3ccco3)cc2c2c3c(c4c(c21)CCc1nn(C)cc1-4)C(=O)NC3`: 20 nM. In the case of `CCCn1c2ccc(NC(=O)Nc3ccccc3Cl)cc2c2c3c(c4c(c21)CCc1nn(C)cc1-4)C(=O)NC3`, the IC50 at Angiopoietin-1 receptor is 3 nM.

In turn, `CCCn1c2ccc(NC(=O)N(C)c3ccccc3)cc2c2c3c(c4c(c21)CCc1nn(C)cc1-4)C(=O)NC3` displayed an IC50 against Angiopoietin-1 receptor of 2 nM. `CCCn1c2ccc(NC(=O)Nc3ccc(SC)cc3)cc2c2c3c(c4c(c21)CCc1nn(C)cc1-4)C(=O)NC3` showed an IC50 against Angiopoietin-1 receptor of 3 nM. Molecule `CCCn1c2ccc(NC(=O)OC(C)C)cc2c2c3c(c4c(c21)CCc1nn(C)cc1-4)C(=O)NC3` gave a half-life in series [1] of 2.84 h. The AUC(0-t) in series [2] came out at 1420 ng·h/mL; in series [7], 2420 ng·h/mL. Also, the AUC(0-inf) in [3] was determined as 1710 ng·h/mL; in series [8], 3770 ng·h/mL. For the same molecule, in series [4], the Vd came out at 2.34 L/kg. The molecule further showed a clearance in series [5] of 10.5 mL/min/kg. Moreover, in series [6], the Tmax came out at 4 h. In series [9], the highest level (Cmax) was 552 ng/mL. In addition, the results for the Activity in the series filed under Mus musculus and in the series with Rattus norvegicus were 62% and “Toxic”, respectively. At Angiopoietin-1 receptor, the IC50 came out at 11 nM. Molecule `CCCn1c2ccc(NC(=O)OCC)cc2c2c3c(c4c(c21)CCc1nn(C)cc1-4)C(=O)NC3` displayed an IC50 against Angiopoietin-1 receptor of 18 nM. Still for that read-out and setting: the same measure for `CCCCn1c2ccc(N)cc2c2c3c(c4c(c21)CCc1nn(C)cc1-4)C(=O)NC3`: 230 nM; for `CCCn1c2ccc(NC(=O)Nc3cccs3)cc2c2c3c(c4c(c21)CCc1nn(C)cc1-4)C(=O)NC3`: 19 nM; for `CCCn1c2ccc(NC(=O)Nc3ccc(Cl)cc3)cc2c2c3c(c4c(c21)CCc1nn(C)cc1-4)C(=O)NC3`: 6 nM. `CCCn1c2ccc(NC(=O)c3cccs3)cc2c2c3c(c4c(c21)CCc1nn(C)cc1-4)C(=O)NC3` gave an IC50 against Angiopoietin-1 receptor of 12 nM. Still for that read-out and setting: the value for `CCCn1c2ccc(NC(=O)Oc3ccc(F)cc3)cc2c2c3c(c4c(c21)CCc1nn(C)cc1-4)C(=O)NC3` was 11 nM; that for `COc1ccccc1NC(=O)Nc1ccc2c(c1)c1c3c(c4c(c1n2CC(C)C)CCc1nn(C)cc1-4)C(=O)NC3` was 8 nM.

Molecule `CCCn1c2ccc(N)cc2c2c3c(c4c(c21)CCc1nn(C)cc1-4)C(=O)NC3` registered an IC50 against Angiopoietin-1 receptor of 36 nM. The same measure, in the same setting: the value for `CCCOC(=O)Nc1ccc2c(c1)c1c3c(c4c(c1n2CCC)CCc1nn(C)cc1-4)C(=O)NC3` was 7 nM. At Angiopoietin-1 receptor, `CCCCn1c2ccc(NC(=O)Nc3ccc(OC)cc3)cc2c2c3c(c4c(c21)CCc1nn(C)cc1-4)C(=O)NC3` displayed an IC50 of 7 nM. Same read-out and setting: the value for `CCCn1c2ccc(NC(=O)Nc3ccc(F)cc3)cc2c2c3c(c4c(c21)CCc1nn(C)cc1-4)C(=O)NC3` was 2 nM; that for `CCCn1c2ccc(NC(=O)Nc3ccc(N(C)C)cc3)cc2c2c3c(c4c(c21)CCc1nn(C)cc1-4)C(=O)NC3` was 6 nM; that for `CCCn1c2ccc(NC(=O)Nc3ccccc3Br)cc2c2c3c(c4c(c21)CCc1nn(C)cc1-4)C(=O)NC3` was 4 nM. Still for that read-out and setting: the same measure for `CCCn1c2ccc(NC(=O)Nc3ccc(C)cc3)cc2c2c3c(c4c(c21)CC(C=N)=CC4)C(=O)NC3`: 3 nM; for `CCn1c2ccc(NC(=O)Nc3ccc(OC)cc3)cc2c2c3c(c4c(c21)CCc1nn(C)cc1-4)C(=O)NC3`: 4 nM; for `CCCn1c2ccc(NC(=O)Nc3ccccc3F)cc2c2c3c(c4c(c21)CCc1nn(C)cc1-4)C(=O)NC3`: 2 nM. At Angiopoietin-1 receptor, `CCCn1c2ccc(NC(=O)c3ccco3)cc2c2c3c(c4c(c21)CCc1nn(C)cc1-4)C(=O)NC3` displayed an IC50 of 29 nM. Still for that read-out and setting: the same measure for `CCCn1c2ccc(NC(=O)Nc3cccc(F)c3)cc2c2c3c(c4c(c21)CCc1nn(C)cc1-4)C(=O)NC3`: 2 nM; for `CC(C)Cn1c2ccc(NC(=O)c3cccs3)cc2c2c3c(c4c(c21)CCc1nn(C)cc1-4)C(=O)NC3`: 10 nM; for `CCCn1c2ccc(NC(=O)Nc3cc(C(F)(F)F)ccc3F)cc2c2c3c(c4c(c21)CCc1nn(C)cc1-4)C(=O)NC3`: 4 nM.
